Data reported in publication PMC12195967, “Cobalt(II) Complexes of 4′–Nitro–Fenamic Acid: Characterization and Biological Evaluation” (Molecules, 2025).

How the values were obtained:
CT DNA = test: Interaction with CT DNA by UV-vis spectroscopy; format: binding, calf; conditions: for percentage of the observed hyper-/hypochromism (ΔA/A0, %) / blue-/red-shift in λmax (Δλ, nm): upon addition of CT DNA; for DNA-binding constant Kb: Wolfe–Shimer equation
Experimental: UV-vis spectroscopy was employed to determine the interaction mode of the compounds (4′–NO2–fenH and its complexes 1–4) with DNA and calculate the DNA-binding constant (Kb). For this reason, the UV-vis spectra of the compounds (2 × 10^−5–10^−4 Μ) were recorded in the presence of incremental additions of CT DNA solution (Figure S4), and the changes (in absorbance and wavelength) of the initial bands were monitored. […] However, a definite conclusion cannot be reached from such spectroscopic data, but the interaction mode could be further corroborated by viscosity measurements.
The Kb values of the compounds were calculated with the Wolfe–Shimer equation (Equation (S1)) and the corresponding plots of [DNA]/(εA–εF) vs. [DNA] (Figure S5).
S3 Binding studies with CT DNA
In order to study the interaction of the compounds with DNA, the compound was initially dissolved in DMSO (1 mM). Mixing of such solutions with the aqueous buffer solutions of DNA used in the studies never exceeded 5% DMSO (v/v) in the final solution, which was needed due to low aqueous solubility of most compounds. In all experiments, the effect of DMSO on the data has been taken into consideration and the appropriate corrections have been performed. The interaction of the compound with CT DNA was monitored by UV−vis spectroscopy, and viscosity measurements, and via competitive studies with EB by fluorescence emission spectroscopy.
S3.1 Binding study with CT DNA by UV−vis spectroscopy
The interaction of the compound with CT DNA has been studied by UV−vis spectroscopy in order to investigate the possible binding mode to CT DNA and to calculate the DNA−binding constant (Kb). of the compounds Kb (in M−1) was determined with the Wolfe−Shimer equation (equation S1) and the plots [DNA]/(εA−εf) versus [DNA] using the UV−vis spectra of the compound (25–100 μM) recorded for a constant concentration with increasing amounts of CT DNA for diverse [compound]/[DNA] mixing ratios (= r).
According to the Wolfe−Shimer equation:
[DNA] = [DNA] + 1 (equation S1)
(εA−εf) (εb−εf) Kb(εb−εf) where [DNA] is the concentration of DNA in base pairs, εA = Aobsd/[compound], εf = the extinction coefficient for the free compound and εb = the extinction coefficient for the compound in the fully bound form. Kb is given by the ratio of slope to the y intercept in plots [DNA]/(εA−εf) versus [DNA]. […]

EB–DNA adduct (CT DNA) = test: EB-displacement (EB–DNA fluorescence quenching); format: binding, calf; conditions: for relative EB–DNA fluorescence emission intensity (I/Io, %), final: % of the initial EB–DNA fluorescence remaining, λemission 594 nm; for percentage of EB–DNA fluorescence emission quenching (ΔI/I0, %): λexcitation 540 nm, emission 594 nm, buffer pH 7; for quenching constant Kq (EB–DNA): τ0 = 23 ns
Experimental: For the current study, the EB–DNA adduct was prepared in situ after 1-h pretreatment of EB (40 μΜ) and CT DNA (40 μΜ) in buffer solution (sodium chloride 150 mM and sodium citrate 15 mM at pH = 7).
Furthermore, the Stern–Volmer constants (KSV) that represent the ability of the compounds to induce quenching were calculated with the Stern–Volmer equation (Equation (S2)) and the corresponding Stern–Volmer plots […] vs. [Q] (Figure S8). […] The corresponding quenching constants (Kq) were calculated with Equation (S3) using the value of 23 ns as the fluorescence lifetime (τ0) of EB–DNA adduct.
S3.4 EB−displacement studies
The competition of the compounds with EB was investigated by fluorescence emission spectroscopy to examine whether the compounds can displace EB from its DNA−EB adduct. The CT DNA−EB complex was formed by pre−treating 40 μM EB and […] CT DNA in buffer (150 mM NaCl and 15 mM trisodium citrate at pH 7.0). The possible displacement of EB by the compound sand subsequently the intercalating effect was studied by the stepwise addition of a certain amount of the solution of each compound into the solution of the CT DNA−EB adduct. The solutions were excited at 540 nm and the emission was monitored from 550−700 nm with λmax = 592−594 nm and the effect of the addition of the compounds to the CT−DNA EB solution was recorded. […]
fluorescence emission bands at room temperature in solution or in the presence of CT DNA or EB under the same experimental conditions (λexcitation = 540 nm); therefore, the observed quenching of the EB−DNA solution may be attributed to the displacement of EB from its […]
The Stern−Volmer constants (KSV, in M−1) were calculated according to the linear Stern−Volmer equation (equation S2) and the respective plots Io/I versus [compound]:
Io = 1 + K τ [Q] = 1 + K [Q] (equation S2) […]
where Io and I are the emission intensities of the EB−DNA solution in the absence and the presence of the compound, respectively, τo = the average lifetime of the emitting system without the quencher and kq = the quenching constant. Taking τo = 23 ns as the fluorescence lifetime of the EB−DNA adduct, the quenching constant of the compound (Kq, in M−1s−1) was calculated according to equation [6]: […]

[1] = UV band at λmax 391–421 nm, + hyperchromism, − hypochromism
[2] = UV band at λmax 391–421 nm, + red-shift, − blue-shift

C[O-].C[O-].Cc1ccc2ccc3ccc(C)nc3c2n1.Cc1ccc2ccc3ccc(C)nc3c2n1.O=C([O-])c1ccccc1Nc1ccc([N+](=O)[O-])cc1.O=C([O-])c1ccccc1Nc1ccc([N+](=O)[O-])cc1.[Co+2].[Co+2] [Complex 4, [Co2(4′–NO2–fen)2(μ–CH3O)2(neoc)2]]
percentage of the observed hyper-/hypochromism (ΔA/A0, %) (CT DNA; [1]): −3% | blue-/red-shift in λmax (Δλ, nm) (CT DNA; [2]): −4.5 nm | DNA-binding constant Kb (CT DNA): 2.06e+06 M⁻¹ | Stern–Volmer constant Ksv (EB–DNA) (EB–DNA adduct (CT DNA)): 7.78 (±0.24) × 10^4 M^−1 | relative EB–DNA fluorescence emission intensity (I/Io, %), final (EB–DNA adduct (CT DNA)): 26.0% | percentage of EB–DNA fluorescence emission quenching (ΔI/I0, %) (EB–DNA adduct (CT DNA)): 74.0% | quenching constant Kq (EB–DNA) (EB–DNA adduct (CT DNA)): 3.38 (±0.10) × 10^12 M^−1s^−1

O=C(O)c1ccccc1Nc1ccc([N+](=O)[O-])cc1 [4′–NO2–fenH, 4′–nitrofenamic acid]
percentage of the observed hyper-/hypochromism (ΔA/A0, %) (CT DNA; [1]): −12% | blue-/red-shift in λmax (Δλ, nm) (CT DNA; [2]): +20 nm | DNA-binding constant Kb (CT DNA; listed as 4′–NO2–fenamic acid): 1.62e+06 M⁻¹ | Stern–Volmer constant Ksv (EB–DNA) (EB–DNA adduct (CT DNA)): 5.36 (±0.27) × 10^4 M^−1 | relative EB–DNA fluorescence emission intensity (I/Io, %), final (EB–DNA adduct (CT DNA)): 52.9% | percentage of EB–DNA fluorescence emission quenching (ΔI/I0, %) (EB–DNA adduct (CT DNA)): 47.1% | quenching constant Kq (EB–DNA) (EB–DNA adduct (CT DNA)): 2.33 (±0.11) × 10^12 M^−1s^−1

O=C([O-])c1ccccc1Nc1ccc([N+](=O)[O-])cc1.O=C([O-])c1ccccc1Nc1ccc([N+](=O)[O-])cc1.[Co+2].c1cnc2c(c1)ccc1cccnc12 [Complex 3, [Co(4′–NO2–fen)2(phen)]]
percentage of the observed hyper-/hypochromism (ΔA/A0, %) (CT DNA; [1]): −2.5% | blue-/red-shift in λmax (Δλ, nm) (CT DNA; [2]): +0.5 nm | Stern–Volmer constant Ksv (EB–DNA) (EB–DNA adduct (CT DNA)): 7.39 (±0.21) × 10^4 M^−1 | relative EB–DNA fluorescence emission intensity (I/Io, %), final (EB–DNA adduct (CT DNA)): 26.3% | percentage of EB–DNA fluorescence emission quenching (ΔI/I0, %) (EB–DNA adduct (CT DNA)): 73.7% | quenching constant Kq (EB–DNA) (EB–DNA adduct (CT DNA)): 3.21 (±0.09) × 10^12 M^−1s^−1

CO.CO.CO.CO.O=C([O-])c1ccccc1Nc1ccc([N+](=O)[O-])cc1.O=C([O-])c1ccccc1Nc1ccc([N+](=O)[O-])cc1.[Co+2] [Complex 1, [Co(4′–NO2–fen)2(MeOH)4]]
percentage of the observed hyper-/hypochromism (ΔA/A0, %) (CT DNA; [1]): −10% | blue-/red-shift in λmax (Δλ, nm) (CT DNA; [2]): 0 nm | Stern–Volmer constant Ksv (EB–DNA) (EB–DNA adduct (CT DNA)): 4.99 (±0.14) × 10^4 M^−1 | relative EB–DNA fluorescence emission intensity (I/Io, %), final (EB–DNA adduct (CT DNA)): 35.4% | percentage of EB–DNA fluorescence emission quenching (ΔI/I0, %) (EB–DNA adduct (CT DNA)): 64.6% | quenching constant Kq (EB–DNA) (EB–DNA adduct (CT DNA)): 2.17 (±0.06) × 10^12 M^−1s^−1

O=C([O-])c1ccccc1Nc1ccc([N+](=O)[O-])cc1.O=C([O-])c1ccccc1Nc1ccc([N+](=O)[O-])cc1.[Co+2].c1ccc(Nc2ccccn2)nc1 [Complex 2, [Co(4′–NO2–fen)2(bipyam)]]
blue-/red-shift in λmax (Δλ, nm) (CT DNA; UV band at λmax 321 nm): −0.5 nm | percentage of the observed hyper-/hypochromism (ΔA/A0, %) (CT DNA; UV band at λmax 321 nm): +4% | percentage of the observed hyper-/hypochromism (ΔA/A0, %) (CT DNA; [1]): −10% | blue-/red-shift in λmax (Δλ, nm) (CT DNA; [2]): 0 nm | Stern–Volmer constant Ksv (EB–DNA) (EB–DNA adduct (CT DNA)): 8.91 (±0.21) × 10^4 M^−1 | relative EB–DNA fluorescence emission intensity (I/Io, %), final (EB–DNA adduct (CT DNA)): 32.6% | percentage of EB–DNA fluorescence emission quenching (ΔI/I0, %) (EB–DNA adduct (CT DNA)): 67.3% | quenching constant Kq (EB–DNA) (EB–DNA adduct (CT DNA)): 3.88 (±0.09) × 10^12 M^−1s^−1
